pIC50: −log10 of the molar value.
Biological target: human NaV 1.8 (Homo sapiens, UniProt Q9Y5Y9)
Test: E-VIPR assay detecting and measuring NaV inhibition properties
Format: cell-based
Conditions: HEK cells expressing a truncated form of human NaV 1.8; electrical stimulation, membrane potential FRET dyes
Excerpt: E-VIPR Assay Detecting and Measuring NaV Inhibition Properties
Sodium ion channels are voltage-dependent proteins that can be activated by inducing membrane voltage changes by applying electric fields. The electrical stimulation instrument and methods of use, referred to as E-VIPR, are described in International Publication No. WO 2002/008748 A3 and C.-J. Huang et al. Characterization of voltage-gated sodium channel blockers by electrical stimulation and fluorescence detection of membrane potential, 24 Nature Biotech. 439-46 (2006), both of which are incorporated by reference in their entirety. The instrument comprises a microtiter plate handler, an optical system for exciting the coumarin dye while simultaneously recording the coumarin and oxonol emissions, a waveform generator, a current- or voltage-controlled amplifier, and parallel electrode pairs that are inserted into assay plate wells. Under integrated computer control, this instrument passes user-programmed electrical stimulus protocols to cells within the wells of the microtiter plate.
16-20 hours prior to running the assay on E-VIPR, HEK cells expressing a truncated form of human NaV 1.8 with full channel activity were seeded into microtiter 384-well plates, pre-coated with matrigel, at a density of 25,000 cells per well. 2.5-5% KIR2.1 Bacmam virus was added to the final cell suspension before seeding into cell plates. HEK cells were grown in Dulbecco's Modified Eagle's Medium (DMEM) supplemented with 10% FBS (Fetal Bovine Serum, qualified; Sigma #F4135), 1% NEAA (Non-Essential Amino Acids, Gibco #11140), 1% HEPES (Gibco #15630), 1% Pen-Strep (Penicillin-Streptomycin; Gibco #15140) and 5 μg/ml Blasticidin (Gibco #R210-01). Cells were expanded in vented cap cell culture flasks, with 90-95% humidity and 5% CO2.
Reagents and Stock Solutions:
100 mg/mL Pluronic F-127 (Sigma #P2443), in dry DMSO
Compound Plates: Corning 384-well Polypropylene Round Bottom #3656
Cell Plates: 384-well tissue culture treated plates (Greiner #781091-2B)
2.5-5% KIR 2.1 Bacmam virus (produced in-house), prepared as described in Section 3.3 of J. A. Fornwald et al., Gene Expression in Mammalian Cells Using BacMam, a Modified Baculovirus System, 1350 Methods in Molecular Biology 95-116 (2016), the entire contents of which are incorporated by reference. The concentration used can be dependent on viral titer of each batch.
5 mM DiSBAC6(3), a voltage sensitive oxonol acceptor (CAS number 169211-44-3; 5-[3-(1,3-dihexylhexahydro-4,6-dioxo-2-thioxo-5-pyrimidinyl)-2-propen-1-ylidene]-1,3-dihexyldihydro-2-thioxo-4,6(1H,5H)-pyrimidinedione), in dry DMSO. The preparation of DiSBAC6(3) is analogous to that of DiSBAC4(3) as described in Voltage Sensing by Fluorescence Resonance Energy Transfer in Single Cells, Gonzalez, J. E. and Tsien, R. Y. (1995) Biophys. J. 69, 1272-1280.
5 mM CC2-DMPE, a commercially available membrane-bound coumarin phospholipid FRET donor (ThermoFisher Scientific catalog number K1017, CAS number 393782-57-5; tetradecanoic acid, 1,1′-[(1R)-1-[8-(6-chloro-7-hydroxy-2-oxo-2H-1-benzopyran-3-yl)-3-hydroxy-3-oxido-8-oxo-2,4-dioxa-7-aza-3-phosphaoct-1-yl]-1,2-ethanediyl]ester) was prepared in dry DMSO. See also, Improved indicators of cell membrane potential that use fluorescence resonance energy transfer, Gonzalez, J. E. and Tsien, R. Y. (1997) Chem. Biol. 4, 269-277.
Voltage Assay Background Suppression Compound (VABSC-1) is prepared in H2O (89-363 mM, range used to maintain solubility)
Human Serum (HS, Millipore #S1P1-01KL, or Sigma SLBR5469V and SLBR5470V as a 50%/50% mixture, for 25% assay final concentration)
Bath 1 Buffer: • Sodium Chloride 160 mM (9.35 g/L), Potassium Chloride, 4.5 mM (0.335 g/L), Glucose 10 mM (1.8 g/L), Magnesium Chloride (Anhydrous) 1 mM (0.095 g/L), Calcium Chloride 2 mM (0.222 g/L), HEPES 10 mM (2.38 g/L) in water. […]

Sequence of human NaV 1.8 (Q9Y5Y9 126-1722 limits assumed): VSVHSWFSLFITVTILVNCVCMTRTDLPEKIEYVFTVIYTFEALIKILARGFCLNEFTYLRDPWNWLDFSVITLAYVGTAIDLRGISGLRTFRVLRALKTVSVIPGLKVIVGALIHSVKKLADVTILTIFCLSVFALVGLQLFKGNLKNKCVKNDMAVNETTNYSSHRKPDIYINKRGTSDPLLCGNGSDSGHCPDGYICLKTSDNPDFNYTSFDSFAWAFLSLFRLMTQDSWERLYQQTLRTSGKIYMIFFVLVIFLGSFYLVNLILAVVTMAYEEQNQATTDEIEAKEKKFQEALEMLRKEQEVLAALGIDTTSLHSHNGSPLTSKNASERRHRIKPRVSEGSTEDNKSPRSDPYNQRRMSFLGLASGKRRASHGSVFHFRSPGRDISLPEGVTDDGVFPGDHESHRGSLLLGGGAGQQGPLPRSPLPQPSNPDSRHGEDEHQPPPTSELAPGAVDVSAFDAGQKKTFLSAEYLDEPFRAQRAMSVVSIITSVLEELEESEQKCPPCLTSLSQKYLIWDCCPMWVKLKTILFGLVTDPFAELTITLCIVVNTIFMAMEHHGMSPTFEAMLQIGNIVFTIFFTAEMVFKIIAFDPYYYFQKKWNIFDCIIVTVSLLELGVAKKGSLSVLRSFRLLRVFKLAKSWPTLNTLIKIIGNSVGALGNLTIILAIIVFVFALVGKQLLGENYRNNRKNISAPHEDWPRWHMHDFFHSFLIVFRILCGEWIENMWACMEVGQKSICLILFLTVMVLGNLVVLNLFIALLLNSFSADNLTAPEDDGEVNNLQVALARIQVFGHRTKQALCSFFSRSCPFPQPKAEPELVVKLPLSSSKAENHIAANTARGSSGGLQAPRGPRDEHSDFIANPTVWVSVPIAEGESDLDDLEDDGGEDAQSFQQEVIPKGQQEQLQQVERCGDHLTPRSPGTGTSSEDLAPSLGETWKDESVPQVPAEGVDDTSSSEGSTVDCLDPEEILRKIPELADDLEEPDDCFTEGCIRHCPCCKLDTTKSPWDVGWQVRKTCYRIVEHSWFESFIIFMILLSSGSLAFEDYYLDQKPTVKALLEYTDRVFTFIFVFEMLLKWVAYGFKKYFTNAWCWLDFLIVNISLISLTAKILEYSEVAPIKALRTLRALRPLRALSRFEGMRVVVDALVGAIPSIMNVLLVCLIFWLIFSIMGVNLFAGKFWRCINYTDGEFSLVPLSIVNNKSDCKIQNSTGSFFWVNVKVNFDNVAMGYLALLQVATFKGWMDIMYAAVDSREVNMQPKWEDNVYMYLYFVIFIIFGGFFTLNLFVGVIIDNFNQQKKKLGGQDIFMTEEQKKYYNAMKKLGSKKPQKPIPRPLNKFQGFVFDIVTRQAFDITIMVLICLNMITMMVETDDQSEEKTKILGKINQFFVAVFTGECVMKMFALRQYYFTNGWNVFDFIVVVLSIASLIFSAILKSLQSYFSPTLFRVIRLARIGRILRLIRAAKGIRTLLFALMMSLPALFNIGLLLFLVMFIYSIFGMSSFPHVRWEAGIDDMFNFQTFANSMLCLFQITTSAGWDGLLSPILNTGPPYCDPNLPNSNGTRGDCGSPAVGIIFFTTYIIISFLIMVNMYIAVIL

| Structure (SMILES) | pIC50 |
| --- | --- |
| CCOc1c([C@@H]2C[C@](C)(C(F)(F)F)O[C@H]2C(=O)Nc2ccc([C@H](O)CO)nc2)ccc(F)c1F (single isomer, unassigned) [Compound 33, rel-(2R,3S,5R)-N-(6-((S*)-1,2-dihydroxyethyl)pyridin-3-yl)-3-(2-ethoxy-3,4-difluorophenyl)-5-methyl-5-(trifluoromethyl)tetrahydrofuran-2-carboxamide] | 6.00 to 7.00 |
| CCOc1c([C@H]2C[C@@](C)(C(F)(F)F)O[C@@H]2C(=O)Nc2ccc([C@@H](O)CO)nc2)ccc(F)c1F (single isomer, unassigned) [Compound 34, rel-(2S,3R,5S)-N-(6-((R*)-1,2-dihydroxyethyl)pyridin-3-yl)-3-(2-ethoxy-3,4-difluorophenyl)-5-methyl-5-(trifluoromethyl)tetrahydrofuran-2-carboxamide] | ≤ 6.00 |
| CCOc1c([C@@H]2C[C@](C)(C(F)(F)F)O[C@H]2C(=O)Nc2ccc([C@@H](O)CO)nc2)ccc(F)c1F (single isomer, unassigned) [Compound 35, rel-(2R,3S,5R)-N-(6-((R*)-1,2-dihydroxyethyl)pyridin-3-yl)-3-(2-ethoxy-3,4-difluorophenyl)-5-methyl-5-(trifluoromethyl)tetrahydrofuran-2-carboxamide] | 7.00 to 8.00 |
| CCOc1c([C@H]2[C@H](C(=O)Nc3ccc([C@@H](O)CO)nc3)O[C@@](C)(C(F)(F)F)[C@H]2C)ccc(F)c1C (single isomer, unassigned) [Compound 40, rel-(2R,3S,4S,5R)—N-(6-((R*)-1,2-dihydroxyethyl)pyridin-3-yl)-3-(2-ethoxy-4-fluoro-3-methylphenyl)-4,5-dimethyl-5-(trifluoromethyl)tetrahydrofuran-2-carboxamide] | > 8.00 |
| CCOc1c([C@@H]2[C@@H](C(=O)Nc3ccc([C@@H](O)CO)nc3)O[C@](C)(C(F)(F)F)[C@@H]2C)ccc(F)c1C (single isomer, unassigned) [Compound 41, rel-(2S,3R,4R,5S)—N-(6-((R*)-1,2-dihydroxyethyl)pyridin-3-yl)-3-(2-ethoxy-4-fluoro-3-methylphenyl)-4,5-dimethyl-5-(trifluoromethyl)tetrahydrofuran-2-carboxamide] | ≤ 6.00 |
| CCOc1c([C@H]2[C@H](C(=O)Nc3ccc([C@H](O)CO)nc3)O[C@@](C)(C(F)(F)F)[C@H]2C)ccc(F)c1C (single isomer, unassigned) [Compound 42, rel-(2R,3S,4S,5R)-N-(6-((S*)-1,2-dihydroxyethyl)pyridine-3-yl)-3-(2-ethoxy-4-fluoro-3-methylphenyl)-4,5-dimethyl-5-(trifluoromethyl)tetrahydrofuran-2-carboxamide] | > 8.00 |
| CCOc1c([C@@H]2[C@@H](C(=O)Nc3ccc([C@H](O)CO)nc3)O[C@](C)(C(F)(F)F)[C@@H]2C)ccc(F)c1C (single isomer, unassigned) [Compound 43, rel-(2S,3R,4R,5S)-N-(6-((S*)-1,2-dihydroxyethyl)pyridin-3-yl)-3-(2-ethoxy-4-fluoro-3-methylphenyl)-4,5-dimethyl-5-(trifluoromethyl)tetrahydrofuran-2-carboxamide] | ≤ 6.00 |
| COc1c(C2C(C(=O)Nc3ccc(C(O)CO)nc3)OC(C)(C(F)(F)F)C2C)ccc(F)c1C (single isomer, unassigned) [Compound 44, rel-(2S,3R,4R,5S)-N-(6-((S*)-1,2-dihydroxyethyl)138yridine-3-yl)-3-(4-fluoro-2-methoxy-3-methylphenyl)-4,5-dimethyl-5-(trifluoromethyl)tetrahydrofuran-2-carboxamide] | ≤ 6.00 |
| COc1c([C@H]2[C@H](C(=O)Nc3ccc([C@H](O)CO)nc3)O[C@@](C)(C(F)(F)F)[C@H]2C)ccc(F)c1C (single isomer, unassigned) [Compound 45, rel-(2R,3S,4S,5R)-N-(6-((S*)-1,2-dihydroxyethyl)pyridin-3-yl)-3-(4-fluoro-2-methoxy-3-methylphenyl)-4,5-dimethyl-5-(trifluoromethyl)tetrahydrofuran-2-carboxamide] | 7.00 to 8.00 |
| COc1c([C@@H]2[C@@H](C(=O)Nc3ccc([C@@H](O)CO)nc3)O[C@](C)(C(F)(F)F)[C@@H]2C)ccc(F)c1C (single isomer, unassigned) [Compound 46, rel-(2S,3R,4R,5S)-N-(6-((R*)-1,2-dihydroxyethyl)pyridin-3-yl)-3-(4-fluoro-2-methoxy-3-methylphenyl)-4,5-dimethyl-5-(trifluoromethyl)tetrahydrofuran-2-carboxamide] | ≤ 6.00 |
| COc1c([C@H]2[C@H](C(=O)Nc3ccc([C@@H](O)CO)nc3)O[C@@](C)(C(F)(F)F)[C@H]2C)ccc(F)c1C (single isomer, unassigned) [Compound 47, rel-(2R,3S,4S,5R)-N-(6-((R*)-1,2-dihydroxyethyl)pyridin-3-yl)-3-(4-fluoro-2-methoxy-3-methylphenyl)-4,5-dimethyl-5-(trifluoromethyl)tetrahydrofuran-2-carboxamide] | > 8.00 |
| COc1c([C@@H]2[C@@H](C(=O)Nc3ccc([C@H](O)CO)nc3)O[C@](C)(C(F)(F)F)[C@@H]2C)ccc(F)c1C(F)F (single isomer, unassigned) [Compound 48, rel-(2S,3R,4R,5S)-3-(3-(difluoromethyl)-4-fluoro-2-methoxyphenyl)-N-(6-((S*)-1,2-dihydroxyethyl)pyridin-3-yl)-4,5-dimethyl-5-(trifluoromethyl)tetrahydrofuran-2-carboxamide] | ≤ 6.00 |
| COc1c([C@H]2[C@H](C(=O)Nc3ccc([C@H](O)CO)nc3)O[C@@](C)(C(F)(F)F)[C@H]2C)ccc(F)c1C(F)F (single isomer, unassigned) [Compound 49, rel-(2R,3S,4S,5R)-3-(3-(difluoromethyl)-4-fluoro-2-methoxyphenyl)-N-(6-((S*)-1,2-dihydroxyethyl)pyridin-3-yl)-4,5-dimethyl-5-(trifluoromethyl)tetrahydrofuran-2-carboxamide] | > 8.00 |
| COc1c(C2C(C(=O)Nc3ccc(C(O)CO)nc3)OC(C)(C(F)(F)F)C2C)ccc(F)c1C(F)F (single isomer, unassigned) [Compound 50] | ≤ 6.00 |
| COc1c(C2C(C(=O)Nc3ccc(C(O)CO)nc3)OC(C)(C(F)(F)F)C2C)ccc(F)c1C(F)F (single isomer, unassigned) [Compound 51] | > 8.00 |
| COc1c(C2C(C(=O)Nc3ccc(CO)nc3)OC(C)(C(F)(F)F)C2C)ccc(F)c1C(F)F (single isomer, unassigned) [Compound 52] | ≤ 6.00 |
| COc1c(C2C(C(=O)Nc3ccc(CO)nc3)OC(C)(C(F)(F)F)C2C)ccc(F)c1C(F)F (single isomer, unassigned) [Compound 53] | > 8.00 |
| COc1c(C2C(C(=O)Nc3cnc(CO)nc3)OC(C)(C(F)(F)F)C2C)ccc(F)c1C(F)F (single isomer, unassigned) [Compound 54] | > 8.00 |
| COc1c(C2C(C(=O)Nc3cnc(CO)nc3)OC(C)(C(F)(F)F)C2C)ccc(F)c1C(F)F (single isomer, unassigned) [Compound 55] | 6.00 to 7.00 |
| COc1c([C@@H]2[C@@H](C(=O)Nc3ccc(C(C)O)nc3)O[C@](C)(C(F)(F)F)[C@@H]2C)ccc(F)c1C(F)F (single isomer, unassigned) [Compound 57] | ≤ 6.00 |
